Test [1] concerns the target T1, human CYP17 in H295R adrenocortical carcinoma cells (Homo sapiens, UniProt P05093).
T1 construct: H295R Adrenocortical carcinoma cells [NCI-H295A, ATCC Number CRL-2128, American Type Culture Collection; host or cells: H295R adrenocortical carcinoma cells
T1 sequence (P05093 1-508): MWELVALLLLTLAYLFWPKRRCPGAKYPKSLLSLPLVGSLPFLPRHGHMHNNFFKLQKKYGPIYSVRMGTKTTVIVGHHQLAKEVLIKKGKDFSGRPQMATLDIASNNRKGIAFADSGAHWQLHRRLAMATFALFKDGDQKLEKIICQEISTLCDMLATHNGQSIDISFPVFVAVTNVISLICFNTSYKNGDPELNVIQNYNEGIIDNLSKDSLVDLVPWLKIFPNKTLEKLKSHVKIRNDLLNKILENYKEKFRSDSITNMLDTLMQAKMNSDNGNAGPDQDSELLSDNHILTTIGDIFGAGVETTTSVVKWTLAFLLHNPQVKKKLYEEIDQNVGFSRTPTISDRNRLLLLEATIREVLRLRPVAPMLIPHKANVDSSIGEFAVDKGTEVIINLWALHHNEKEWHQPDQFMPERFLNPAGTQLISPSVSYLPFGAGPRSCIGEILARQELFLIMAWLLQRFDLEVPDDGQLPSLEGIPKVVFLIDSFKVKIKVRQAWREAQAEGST
As to the kind of experiment: Cell-based human CYP17 inhibition assay, H295R cells. The note with it: 16 hours, read-out: CYP17 (human H295R adrenal cells). The method, then:
Cell-Based Human CYP17 Inhibition Assay
1. H295R Adrenocortical Carcinoma Cells and Growth Media: The media for the H295R Adrenocortical carcinoma cells [NCI-H295A, ATCC Number CRL-2128, American Type Culture Collection, Manassas, Va., US] (500 mL) was a DMEM:F12 Mix 1:1 with 5% (2 mL) BD Nu Serum; 1% (5 mL) ITS+Premix [BD Biosciences] and 1% Penstrep. 2. LNCap-CYP17 Cells and Growth Media: Full length hCYP17a1 gene (NCBI Reference Sequence: NM_000102.3) was cloned in pcDNA3.1(+) vector between HindIII and XhoI site. The pcDNA3.1(+) vector contains the Neomycin resistance gene and was used for selection of stable cell line. The hCYP17a1 containing pcDNA3.1(+) was transfected into LNCap cells to create the LNCap-CYP17 cell line. The media for the LNCaP-CYP17 cells was RPMI 1640, 10% FBS, 1% PenStrep, Geneticin 400 μg/mL.
The H295R cells or LNCaP-hCYP17 cells were subcultured and 30,000 cells per well were seeded in a poly-d lysine plate and incubated overnight at 37° C. The next day the media was removed and 200 μL of fresh media with ^3H3-17α-hydroxy-pregnenolone (1:1000) was added. 50 μL of serially diluted compounds from a 5× plate (5 times the final desired concentration) was added. The working concentration range for active, new compounds started from a high concentration of 10 μM with 3-fold serial dilutions generating up to 10 concentrations. The serial dilution in the 100× plate (in DMSO) and the stamping of a 5× plate (in media) from the 100× plate were carried out using a TECAN liquid handling device.
The plates were incubated overnight (16 hours) at 37° C. After 16 hours, the media was removed (approximately 220 μL) and an equal amount of chloroform was added, mixed and incubated for 30 minutes at 4 degrees. The plate was centrifuged at 4000 rpm for 15 minutes at 4° C., following which the top aqueous layer was carefully removed and added into a new deep well plate. An equal volume of activated 5% charcoal was added, mixed and incubated for 30 minutes at 4° C. The plate was then centrifuged at 4000 rpm for 15 minutes at 4° C. and the top layer carefully separated, avoiding any charcoal contamination, and placed in a white, clear bottom plate (plate cat #3610, Corning Life Sciences). An equal volume of Microscint™ 40 was added and mixed well. Following the incubation for 30 minutes, readings for the radiotracer were taken using a Microbeta® trilux.

In test [2] the target is T2, rat CYP17 (rat testicular microsomes) (Rattus norvegicus, UniProt P11715).
T2 construct: Rat testis tissue was collected and disrupted with 30 strokes of a glass homogenizer; from tissue; host or cells: rat testis (microsomes)
T2 sequence (P11715 1-507): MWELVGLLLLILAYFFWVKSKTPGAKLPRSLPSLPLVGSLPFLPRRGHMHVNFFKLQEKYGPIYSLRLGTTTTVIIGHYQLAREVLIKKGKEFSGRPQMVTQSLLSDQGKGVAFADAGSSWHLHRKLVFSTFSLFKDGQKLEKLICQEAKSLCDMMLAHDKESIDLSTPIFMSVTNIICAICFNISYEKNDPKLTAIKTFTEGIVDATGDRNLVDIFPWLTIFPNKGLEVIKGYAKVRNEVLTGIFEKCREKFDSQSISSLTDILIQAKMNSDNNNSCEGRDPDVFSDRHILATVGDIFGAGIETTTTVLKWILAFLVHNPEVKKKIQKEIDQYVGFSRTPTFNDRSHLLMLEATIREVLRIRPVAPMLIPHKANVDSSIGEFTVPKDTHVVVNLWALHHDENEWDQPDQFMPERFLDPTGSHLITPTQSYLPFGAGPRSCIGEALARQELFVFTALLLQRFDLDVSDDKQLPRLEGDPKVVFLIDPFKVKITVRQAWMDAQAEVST
The experiment in a line: CYP17 inhibition assay in rat testicular microsomes. It is filed as biochemical. The method, then:
CYP17 Inhibition Assay in Rat Testicular Microsomes (Rat CYP17) or Yeast Microsome Overexpressing Human CYP17
1. NADPH (Sigma): A working stock was prepared by adding 25 μL of 6.5 mM NADPH in each tube. The final concentration of NADPH used in the assay was 325 μM.
2. Potassium Phosphate Buffer: One molar (1M) solutions of K2HPO4 and KH2PO4 were prepared. Eight mL of the 1 M KH2PO4 and 1.98 mL of the 1 M K2HPO4 were combined and the pH was adjusted to 7.4.
3. ^3H3-17α-hydroxypregnenolone (American Radiolabeled Chemicals, Inc., stock 1 μCi/μL): A 1:1 dilution of ^3H3-17α-hydroxypregnenolone in ethanol was prepared by combining 100 μL ^3H3-17α-hydroxypregnenolone+100 μL ethanol for one complete 96 well plate. For the reaction, 2 μL of the diluted ^3H3-17α-hydroxypregnenolone was added in each tube, i.e., 1 μCi/reaction. 4. Microsome Isolation Buffer: The microsome isolation buffer was prepared by combining 250 mM Sucrose, 5 mM EDTA, 10 mM Tris HCl, 4 mM DTT, and adjusting to pH 7.4. 5. TEG Buffer: The TEG buffer was prepared by combining 50 mM Tris HCl, 1 mM EDTA, and 20% Glycerol. 6. Rat Testicular Microsomes: Rat testis tissue was collected and disrupted with 30 strokes of a glass homogenizer on ice with 250 μL of microsome isolation buffer, followed by centrifugation at 10,000 g for 10 minutes at 4° C. The supernatant was collected and centrifuged at 100,000 g for 45 minutes at 4° C. The pellet was dissolved in TEG Buffer and the protein was quantified. The homogenized microsome samples were then frozen at −80° C. • 7. Yeast Microsomes which overexpress the human CYP17 enzyme were obtained from Premas Biotech, India.
Potassium phosphate buffer (470 μL) was prepared as described above and was added to each well of a deep well plate. The test compound was diluted using a TECAN liquid handler and 5 μL of diluted compound was transferred to each well (96 deep well/1 mL). A solution (25 μL) of 6.5 mM NADPH was added (final concentration of 325 μM in the assay). ^3H3-17α-hydroxypregnenolone (2 μL of the working stock) was added to each tube. The plates were then pre-incubated for 15 minutes at 37° C. Following the pre-incubation, either 5 μL rat testicular microsomes (150-160 μg) or 5 μL of yeast microsomes expressing human CYP17 (1.7 pmol), was added. Incubation was at 37° C. for 60 minutes in the presence of oxygen. The plates were then placed in ice and chloroform (500 μL) was added, mixed well and incubated at 4° C. for 20 minutes. The plates were then centrifuged at 1000 rpm for 15 minutes at 4° C.
A portion (300 μL) of the aqueous solution was collected and mixed with a 5% aqueous suspension of activated charcoal (300 μL). The plates were then incubated at 4° C. for 30 minutes, after which the plates were centrifuged at 1000 rpm for 15 minutes at 4° C. From this, 125 μL of the aqueous solution was collected and plated into a 96 well plate. Microscint™ 40 [125 μL, Perkin-Elmer; containing a mixture of a polymer based on alkylphenolethoxylate (20-40%), diethanolamine-phosphoric acid ester ammonium salt (10-20%), sodium dioctyl sulphosuccinate (2.5-10%), triethyl phosphate (2.5-10%), 3,6-dimethyl-4-octyne-3,6-diol (≦2.5%), a polymer based on nonylphenolethoxylate (≦2.5%), diisopropyl naphthalene isomers (40-60%), 2,5-diphenyloxazole (≦2.5%), and 9,10-dimethylanthracene] was added and mixed well. After 30 minutes of incubation, the samples were analyzed with a MicroBeta® Trilux microplate liquid scintillation counter and luminometer (Perkin-Elmer).

A value given as a limit tells only on which side of the number the result lay.

On to `Cn1cc(-c2ccc(C(C)(O)c3ccncc3)s2)ccc1=O` (single isomer, unassigned; (+)) [Example 16, (+)-5-(5-(1-hydroxy-1-(pyridin-4-yl)ethyl)thiophen-2-yl)-1-methylpyridin-2(1H)-one], for which the IC50 in test [1] and in test [2] was 50 to 200 nM each time.
`CCC(O)(c1ccncc1)c1cnc(-c2cn[nH]c2)s1` (single isomer, unassigned; (+)) [Example 20, (+)-1-[2-(1H-pyrazol-4-yl)-1,3-thiazol-5-yl]-1-pyridin-4-ylpropan-1-ol] showed an IC50 in test [2] of 201 to 10000 nM.
`CC(O)(c1ccncc1)c1ncc(-c2ccc(F)cc2)s1` (single isomer, unassigned; (+)) [Example 55, (+)-1-(5-(4-fluorophenyl)thiazol-2-yl)-1-(pyridin-4-yl)ethanol]: the IC50 was 50 to 200 nM in test [1] and less than 50 nM in test [2].
For `CCC(O)(c1ccncc1)c1cnc(-c2cn[nH]c2)s1` (single isomer, unassigned; (-)) [Example 19, (−)-1-[2-(1H-pyrazol-4-yl)-1,3-thiazol-5-yl]-1-pyridin-4-ylpropan-1-ol], in that order: less than 50 nM and less than 50 nM.
For `CC(O)(c1ccncc1)c1nc(-c2ccc(F)cc2)no1` (single isomer, unassigned; (-)) [Example 35, (−)-1-(3-(4-fluorophenyl)-1,2,4-oxadiazol-5-yl)-1-(pyridin-4-yl)ethanol], in that order: 201 to 10000 nM and less than 50 nM.
With `CC(O)(c1ccncc1)c1ncc(-c2ccc(F)cc2)s1` (single isomer, unassigned; (-)) [Example 54, (−)-1-(5-(4-fluorophenyl)thiazol-2-yl)-1-(pyridin-4-yl)ethanol], the IC50 in test [1] and in test [2] was less than 50 nM in each case.
In the case of `CC(O)(c1ccncc1)c1ccc(-c2ccc(F)cc2)cn1` (stereo not drawn) [Example 5, 1-(5-(4-fluorophenyl)-pyridin-2-yl)-1-(pyridin-4-yl)ethanol], the IC50 is 201 to 10000 nM in test [1] and less than 50 nM in test [2].
Turning to `COc1ccc(-c2ccc(C(C)(O)c3ccncc3)nc2)cc1F` (stereo not drawn) [Example 6, 1-(5-(3-fluoro-4-methoxyphenyl)-pyridin-2-yl)-1-(pyridin-4-yl)ethanol], the IC50 in test [1] was 50 to 200 nM; in test [2], less than 50 nM.
`CC(O)(c1ccncc1)c1ccc(-c2ccc(C#N)cc2)cn1` (stereo not drawn) [Example 10, 4-(6-(1-hydroxy-1-(pyridin-4-yl)-ethyl)pyridin-3-yl)-benzonitrile]: the IC50 is 201 to 10000 nM in test [1] and less than 50 nM in test [2].
For `CC(O)(c1ccncc1)c1cnc(-c2ccc(F)cc2)cn1` (stereo not drawn) [Example 11, 1-(5-(4-Fluorophenyl)pyrazin-2-yl)-1-(pyridin-4-yl)ethanol], in that order: 201 to 10000 nM and less than 50 nM.
For `CC(O)(c1ccncc1)c1ccc(-c2ccc(C#N)nc2)cn1` (stereo not drawn) [Example 12, 6′-(1-Hydroxy-1-(pyridin-4-yl)ethyl)-[3,3′-bipyridine]-6-carbonitrile], in that order: 50 to 200 nM and less than 50 nM.
As for `CCC(O)(c1ccncc1)c1ncc(-c2ccc(F)cc2)s1` (stereo not drawn) [Example 13, 1-(5-(4-Fluorophenyl)thiazol-2-yl)-1-(pyridin-4-yl)propan-1-ol], the IC50 in test [1] is 201 to 10000 nM; in test [2], less than 50 nM.
`CC(O)(c1ccncc1)c1cnc(-c2ccc(F)nc2)s1` (stereo not drawn) [Example 22, 1-(2-(6-Fluoropyridin-3-yl)thiazol-5-yl)-1-(pyridin-4-yl)ethanol] yielded an IC50 in test [2] of 201 to 10000 nM.
Same read-out and setting: the value for `CC(=O)OC(C)(c1ccncc1)c1cnc(-c2ccc(F)cc2)s1` (stereo not drawn) [Example 65, 1-(2-(4-Fluorophenyl)thiazol-5-yl)-1-(pyridin-4-yl)ethyl acetate] was less than 50 nM.
On the same count and under the same terms, the value for `CCC(=O)OC(C)(c1ccncc1)c1cnc(-c2ccc(F)cc2)s1` (stereo not drawn) [Example 66, 1-(2-(4-fluorophenyl)thiazol-5-yl)-1-(pyridin-4-yl)ethyl propionate] was less than 50 nM; that for `CCCC(=O)OC(C)(c1ccncc1)c1cnc(-c2ccc(F)cc2)s1` (stereo not drawn) [Example 67, 1-(2-(4-fluorophenyl)thiazol-5-yl)-1-(pyridin-4-yl)ethyl butyrate] was less than 50 nM.

The record behind these values is patent US8809372B2, “Pyridine derivatives” (Endo Pharmaceuticals, Inc., priority 2011, dated 2014).
